From patent publication US20100160301A1, “MICROANGIOPATHY TREATMENT AND PREVENTION” (BAYER HEALTHCARE AG, priority 2005, published 2010) come the findings set out here.

As usually defined, the melting point is the temperature, or range, at which the solid turns liquid.

Series [1] deals with thrombus formation in an arteriovenous shunt. Nature of the series: Arteriovenous shunt model (rat), antithrombotic action. Format: in vivo. The following applies: oral dosage, read-out: ED50 [mg/kg] p.o. As to the method:
Fasting male rats (strain: HSD CPB:WU) having a weight of 200-250 g are anesthetized using a Rompun/Ketavet solution (12 mg/kg/50 mg/kg). Thrombus formation is induced in an arteriovenous shunt following the method described by Christopher N. Berry et al., Br. J. Pharmacol. (1994), 113, 1209-1214. For this, the left jugular vein and the right carotid artery are exposed. An extracorporeal shunt is arranged between the two vessels by means of a 10 cm long polyethylene tube (PE 60). This polyethylene tube was linked in the center to a further 3 cm long polyethylene tube (PE 160), which contained a nylon thread which was roughened and linked to a loop for the production of a thrombogenic surface. The extracorporeal circulation is maintained for 15 minutes. The shunt is then removed and the nylon thread with the thrombus is immediately weighed. The unloaded weight of the nylon thread had been determined before the start of the experiment. Before starting the extracorporeal circulation, test substances are administered to conscious animals either intravenously via the caudal vein or orally by means of stomach tube.

Regarding `O=C(NC[C@H]1CN(c2ccc(N3CCOCC3=O)cc2)C(=O)O1)c1ccc(Cl)s1` [Example 44, 5-Chloro-N-({(5S)-2-oxo-3-[4-(3-oxo-4-morpholinyl)phenyl]-1,3-oxazolidin-5-yl}methyl)-2-thiophenecarboxamide], the ED50 in series [1] is 3 mg/kg.

`O=C(NC[C@H]1CN(c2ccc(N3CCCOC3=O)cc2)C(=O)O1)c1ccc(Cl)s1` [Example 255]: the melting point lay within 228 to 230 °C.
